Source: patent US20070232532A1, “Use of cyclosporin alkene analogues for preventing or treating viral-induced disorders” (priority 2006, published 2007)
Converted amounts (≈) assume the structure as drawn.

Experiments:
[1] = tested on: concanavalin A-stimulated splenocytes; test: Concanavalin A-stimulated splenocyte assay; assay type: cell-based, BALB/c mice; details: for IC50: immunosuppressive activity, ConA-stimulated murine splenocytes, [3H]thymidine incorporation, 7 point curves
Description: Concanavalin A-Stimulated Splenocyte Assay
Male BALB/c mice, at 5 to 7 weeks of age, were sacrificed by CO2 inhalation. Spleens were removed and dissociated by pushing through a nylon cell strainer. The splenocytes were washed in RPMI 1640/5% fetal calf serum (FCS) and pelleted at 400×g. Red blood cells were then lysed by resuspending the cell pellet in ACK lysis buffer (150 mM NH4Cl, 1 mM KHCO3, 0.1 mM EDTA, 3 mL per spleen) for 10 min at room temperature. After pelleting at 400×g, the cells were washed by resuspending in RPMI 1640/5% FCS and repelleting. The cell pellet was resuspended in RPMI 1640/5% FCS and again passed through a cell strainer to remove cell aggregates. The cells were then counted and adjusted to 2×10^6 cells/ml in RPMI 1640/10% FCS/50 μM 2-mercaptoethanol. Cell viability was assessed by Trypan blue staining. […] The cells were cultured in a 37° C. CO2 incubator for 2 days and then pulsed with 1 μCi of [^3H]thymidine for 6 hours. Cells were harvested onto filtermats with a TomTec 96 well plate harvester and lysed with H2O. The filtermat and scintillation fluid were sealed in a plastic sleeve. [^3H]thymidine incorporation was measured with a Wallac Trilux plate counter. Initial screens were done at a fixed value of 100 ng/ml test compound. IC50s were calculated from 7 point concentration-response curves using GraphPad software.

[2] = tested on: hepatitis C virus replication; details: Paeshuyse et al. 2005; cited from earlier work
cyclophilin A = cyclophilin A (Homo sapiens, UniProt P62937); details: cited from earlier work
HIV-1 = details: literature report; cited from earlier work
calcineurin = details: cited from earlier work
[3] = tested on: immunosuppressive activity; details: Mlynar et al. 1997; cited from earlier work

Sequence of cyclophilin A (P62937 whole entry): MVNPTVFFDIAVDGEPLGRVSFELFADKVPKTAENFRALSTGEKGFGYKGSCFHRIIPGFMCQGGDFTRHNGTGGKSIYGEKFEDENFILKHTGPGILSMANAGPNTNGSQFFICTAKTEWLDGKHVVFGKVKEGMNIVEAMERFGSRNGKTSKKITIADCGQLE

Molecule	IC50 [1] [ng/mL]	other results
CC[C@@H]1NC(=O)[C@H]([C@H](O)[C@H](C)C/C=C/Br)N(C)C(=O)[C@H](C(C)C)N(C)C(=O)[C@H](CC(C)C)N(C)C(=O)[C@H](CC(C)C)N(C)C(=O)[C@@H](C)NC(=O)[C@H](C)NC(=O)[C@H](CC(C)C)N(C)C(=O)[C@H](C(C)C)NC(=O)[C@H](CC(C)C)N(C)C(=O)CN(C)C1=O (relative stereo) [Example 19, trans-cyclosporin vinyl bromide]	9	
C=C/C=C/C[C@@H](C)[C@@H](O)[C@H]1C(=O)N[C@@H](CC)C(=O)N(C)[C@H](CO)C(=O)N(C)[C@@H](CC(C)C)C(=O)N[C@@H](C(C)C)C(=O)N(C)[C@@H](CC(C)C)C(=O)N[C@@H](C)C(=O)N[C@H](C)C(=O)N(C)[C@@H](CC(C)C)C(=O)N(C)[C@@H](CC(C)C)C(=O)N(C)[C@@H](C(C)C)C(=O)N1C (relative stereo) [Example 67, trans-cyclosporin diene]	7 (≈ 5.62 nM)	
C/C=C/C[C@@H](C)[C@@H](O)[C@H]1C(=O)N[C@@H](CC)C(=O)N(C)[C@H](C)C(=O)N(CC)[C@@H](C(C)C)C(=O)N[C@@H](C(C)C)C(=O)N(C)[C@@H](CC(C)C)C(=O)N[C@@H](C)C(=O)N[C@H](C)C(=O)N(C)[C@@H](CC(C)C)C(=O)N(C)[C@@H](CC(C)C)C(=O)N(C)[C@@H](C(C)C)C(=O)N1C [DEBIO-025]		inhibition of hepatitis C virus replication [2]: potent and selective inhibition of hepatitis C virus replication; binding affinity for cyclophilin A (cyclophilin A): potent binding affinity
CC[C@@H]1NC(=O)[C@H]([C@H](O)[C@H](C)CC=CC(F)(F)F)N(C)C(=O)[C@H](C(C)C)N(C)C(=O)[C@H](CC(C)C)N(C)C(=O)[C@H](CC(C)C)N(C)C(=O)[C@@H](C)NC(=O)[C@H](C)NC(=O)[C@H](CC(C)C)N(C)C(=O)[C@H](C(C)C)NC(=O)[C@H](CC(C)C)N(C)C(=O)CN(C)C1=O [Example 31, cyclosporin fluoride]	38 (≈ 30.2 nM)	
CC[C@@H]1NC(=O)[C@H]([C@H](O)[C@H](C)CC=CCF)N(C)C(=O)[C@H](C(C)C)N(C)C(=O)[C@H](CC(C)C)N(C)C(=O)[C@H](CC(C)C)N(C)C(=O)[C@@H](C)NC(=O)[C@H](C)NC(=O)[C@H](CC(C)C)N(C)C(=O)[C@H](C(C)C)NC(=O)[C@H](CC(C)C)N(C)C(=O)CN(C)C1=O [Example 34, cyclosporin allylic fluoride]	12 (≈ 9.83 nM)	
C/C=C/C[C@@H](C)[C@@H](O)[C@H]1C(=O)N[C@@H](CC)C(=O)N(C)CC(=O)N(C)[C@@H]([C@@H](C)CC)C(=O)N[C@@H](C(C)C)C(=O)N(C)[C@@H](CC(C)C)C(=O)N[C@@H](C)C(=O)N[C@H](C)C(=O)N(C)[C@@H](CC(C)C)C(=O)N(C)[C@@H](CC(C)C)C(=O)N(C)[C@@H](C(C)C)C(=O)N1C [SDZ NIM 811]		anti-HIV-1 activity (HIV-1): potent and selective anti-HIV-1 activity; inhibition of calcineurin (calcineurin): does not inhibit calcineurin; immunosuppressive activity [3]: completely devoid of immunosuppressive activity
cyclosporin vinyl iodide [Example 6]	11	
trans-cyclosporin diene-d2 [Example 69]	4	
trans-deuterated cyclosporin vinyl iodide [Example 9]	7	potency in immunosuppression compared to cyclosporin A ([1]; FIG. 1, ConA-stimulated splenocyte assay): enhanced potency
